In one experiment the target is T1, GluK5 (Rattus norvegicus, UniProt Q63273).
T1 construct: made in house; host or cells: Sf9 insect cells (membranes)
T1 sequence (Q63273 15-979): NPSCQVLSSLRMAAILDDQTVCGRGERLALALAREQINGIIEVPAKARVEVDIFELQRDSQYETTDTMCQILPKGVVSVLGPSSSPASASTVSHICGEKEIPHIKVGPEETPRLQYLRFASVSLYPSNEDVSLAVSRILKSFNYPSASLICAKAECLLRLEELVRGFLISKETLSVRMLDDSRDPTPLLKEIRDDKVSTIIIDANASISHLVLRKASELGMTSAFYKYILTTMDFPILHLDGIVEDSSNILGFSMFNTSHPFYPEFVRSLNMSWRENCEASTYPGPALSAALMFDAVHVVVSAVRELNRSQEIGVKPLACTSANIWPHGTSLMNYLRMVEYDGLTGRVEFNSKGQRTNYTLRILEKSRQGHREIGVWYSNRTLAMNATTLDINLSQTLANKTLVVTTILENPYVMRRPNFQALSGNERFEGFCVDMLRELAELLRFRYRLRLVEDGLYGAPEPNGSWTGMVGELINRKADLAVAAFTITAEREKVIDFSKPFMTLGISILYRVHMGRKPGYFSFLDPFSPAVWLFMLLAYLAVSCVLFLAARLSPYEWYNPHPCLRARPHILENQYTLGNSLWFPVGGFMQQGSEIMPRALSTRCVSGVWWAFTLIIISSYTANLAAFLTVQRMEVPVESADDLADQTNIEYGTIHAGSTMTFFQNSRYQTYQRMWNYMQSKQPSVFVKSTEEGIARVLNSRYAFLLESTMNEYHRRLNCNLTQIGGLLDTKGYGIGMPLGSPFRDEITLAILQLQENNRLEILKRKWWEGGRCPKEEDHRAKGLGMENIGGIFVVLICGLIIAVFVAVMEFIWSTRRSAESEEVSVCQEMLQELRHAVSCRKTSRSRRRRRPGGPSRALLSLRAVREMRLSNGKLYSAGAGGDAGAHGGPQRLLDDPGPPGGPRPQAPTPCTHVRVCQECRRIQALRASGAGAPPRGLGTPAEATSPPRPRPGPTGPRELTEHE
The experiment is described as follows: Radioligand binding at recombinant homomeric GluK5 in Sf9 membranes. The note with it: recombinant rat homomeric receptor, [3H]-kainic acid, mean ± SEM. The procedure: Ligand binding affinities at recombinant rat homomeric GluA2, GluK1−3, and GluK5 were determined as previously detailed. […] The filters were dried at 70 °C for 1 h, and 50 μL/well Microscint 20 (PerkinElmer, Waltham, MA, USA) was added. Radioactivity was detected with a TopCounter (PerkinElmer, Waltham, MA, USA). GluA2 and GluK5 assays were filtered on GF/C type filters using Millipore 12-well filtration manifolds (Merck Life Science, Søborg, Denmark) and washed twice with ice-cold assay buffer. Filters were placed in pony vials (PerkinElmer, Waltham, MA, USA), 3 mL of Ultima Gold scintillation fluid (PerkinElmer, Waltham, MA, USA) was added, and DPM (disintegrations per minute) were determined using a TriCarb 2900 scintillation counter (PerkinElmer, Waltham, MA, USA).
All competition curves (n ≥ 3 per ligand) were determined in triplicate. Data were analyzed using GraphPad Prism 6 (GraphPad Software, San Diego, CA, USA) to determine ligand affinity (Ki) and Hill coefficient (nH) using the one-site Ki and four-parameter logistics equations, respectively.

The target of a further experiment is T2, human mGluR5 (Homo sapiens, UniProt P41594).
T2 construct: Flag; expressed in transfected cells; host or cells: HEK293A (transient, Lipofectamine 2000)
Kind of experiment: mGluR5 functional assay (IP1 accumulation, HEK293A cells). Type of experiment: cell-based. The note with it: 0.1 mM compound. An excerpt: Dulbecco’s modified Eagle medium (DMEM), dialyzed fetal bovine serum (FBS), Opti-MEM, penicillin-streptomycin, Dulbecco’s phosphate-buffered saline (DPBS), Hank’s balanced salt solution (HBSS) and Lipofectamine 2000 were purchased from Thermo Fisher Scientific (Waltham, MA, USA). An IP-One Gq kit was purchased from Cisbio (Codolet, France). Quisqualate and poly-D-lysine (PDL) hydrobromide were purchased from Sigma-Aldrich (St. Louis, MO, USA). Falcon clear, tissue culture-treated 96-well plates were from Corning Inc. (Corning, NY, USA). OptiPlate-384 white, opaque 384-well plates were from PerkinElmer, (Waltham, MA, USA). L-AP4 and LY341495 were purchased from Tocris Bioscience (Bristol, UK). The HEK293A cells were a kind gift from Dr. Asuka Inoue (Tohoku University, Sendai, Japan). Plasmids encoding human mGluR4 and Flag-tagged human mGluR5 were kind gifts from Jesper M. Mathiesen (University of Copenhagen, København, Denmark). […]
Cell culture and IP1 Assay. […] IP1 accumulation was measured on an EnVision 2104 Multilabel Reader using a 340/60 nm excitation filter and 615/8.5 nm (donor) and 665/7.5 nm (acceptor) emission filters. HTRF ratios were calculated as the ratio of acceptor over donor emission (665 nm/615 nm) and converted to IP1 concentrations with an IP1 standard curve according to the instructions from the kit manufacturer.

A value given as a limit tells only on which side of the number the result lay.

T2 sequence (P41594 21-1212): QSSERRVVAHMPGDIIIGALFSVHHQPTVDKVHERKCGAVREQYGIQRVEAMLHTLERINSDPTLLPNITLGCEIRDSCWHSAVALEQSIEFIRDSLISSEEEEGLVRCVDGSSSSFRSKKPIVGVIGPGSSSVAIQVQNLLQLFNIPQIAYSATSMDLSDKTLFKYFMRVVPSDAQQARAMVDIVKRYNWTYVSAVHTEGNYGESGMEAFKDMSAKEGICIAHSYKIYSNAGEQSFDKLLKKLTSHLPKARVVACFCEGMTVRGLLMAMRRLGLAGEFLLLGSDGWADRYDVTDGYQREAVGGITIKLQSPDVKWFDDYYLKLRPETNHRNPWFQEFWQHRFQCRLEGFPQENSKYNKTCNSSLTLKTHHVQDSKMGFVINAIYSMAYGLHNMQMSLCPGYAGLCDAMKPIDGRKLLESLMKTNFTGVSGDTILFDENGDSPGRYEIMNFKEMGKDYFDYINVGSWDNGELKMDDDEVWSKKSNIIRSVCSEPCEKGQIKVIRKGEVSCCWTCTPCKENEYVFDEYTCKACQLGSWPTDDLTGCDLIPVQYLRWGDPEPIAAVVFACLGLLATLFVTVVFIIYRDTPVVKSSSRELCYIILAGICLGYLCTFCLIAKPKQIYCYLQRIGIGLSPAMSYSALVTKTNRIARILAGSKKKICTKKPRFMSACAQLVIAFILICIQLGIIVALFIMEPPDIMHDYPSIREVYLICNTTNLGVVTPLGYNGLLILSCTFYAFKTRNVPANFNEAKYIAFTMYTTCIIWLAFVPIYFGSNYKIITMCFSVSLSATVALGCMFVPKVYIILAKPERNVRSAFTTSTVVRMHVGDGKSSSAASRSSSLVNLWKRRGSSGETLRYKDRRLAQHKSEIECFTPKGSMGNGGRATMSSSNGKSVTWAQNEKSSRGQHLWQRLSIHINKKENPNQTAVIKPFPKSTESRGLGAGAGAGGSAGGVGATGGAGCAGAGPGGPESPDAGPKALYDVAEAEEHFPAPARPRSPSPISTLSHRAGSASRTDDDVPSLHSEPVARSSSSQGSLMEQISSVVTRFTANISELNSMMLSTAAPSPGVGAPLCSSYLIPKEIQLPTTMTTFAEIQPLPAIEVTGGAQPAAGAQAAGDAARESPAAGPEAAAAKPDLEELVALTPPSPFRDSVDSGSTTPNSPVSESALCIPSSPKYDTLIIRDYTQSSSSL

In the case of `O=C(Nn1c(=O)c(=O)[nH]c2cc(C#Cc3cnc4cccnn34)ccc21)c1ccccc1` [Compound 28], the Ki on GluK5 was greater than 100 µM. Moreover, the “agonist or antagonist activity at mGluR5” value at human mGluR5 was “neither agonistic nor antagonistic”.

For orientation: Ki means the dissociation constant of the complex between target and ligand, obtained from inhibition or displacement.

(Values after paper PMC9369419 (International Journal of Molecular Sciences, 2022).)
